These results are taken from patent US20240018132A1, “5-HYDROXY-1,4-NAPHTHALENEDIONE FOR USE IN THE TREATMENT OF CANCER” (GODAVARI BIOREFINERIES LIMITED, priority 2020, published 2024).

Structures are written as SMILES.

Test [1] deals with MDAMB231. As to the kind of experiment: Soft agar colony-formation assay, breast cancer. The class given is cell-based. The conditions noted are these: for anticancer activity in comparison with cisplatin, soft agar, breast cancer cell line: FIG. 51, MDAMB231; for IC50: Homo sapiens, MDA-MB-231, 168 h, Soft Agar Assay, 1 week, Alamar Blue. A digest of the protocol:
(§1)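 Cells were plated in soft agar with drug over an agar base layer and grown 1 week at 37 °C/5% CO2, with feeding on day 3. Colonies were quantified with Alamar Blue (24 h, 37 °C) by absorbance at 630 nm. Log % viability was plotted against log drug concentration.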
(The colour change of resazurin is a common sign of viable cells or microbes.)

For test [2], the system named is MDAMB231. In words: In vitro antiproliferative assay (MTT assay), breast cancer cell line. The class given is cell-based. The conditions noted are these: Homo sapiens, MDA-MB-231, 48 h, MTT assay, breast cancer MDAMB231, 48 hrs drug incubation. The essentials:
(§2)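 Seed at predetermined efficiency → 24 h → compound 48 h → spin, discard supernatant → MTT 0.5 mg/ml 4 h → spin → DMSO. Log viability plotted against log dose.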
Background: Formazan colour is commonly taken as a measure of viable cells.

For test [3], the system named is MDAMB231. As to the kind of experiment: In vitro sphere-forming assay (cancer stem cells), Mammosphere media. To be noted: for 3D sphere count of MDAMB231: Mammosphere media, 2000 cells/well, n = 6 ± S.D.
In test [4] the test system is MDAMB231. As to the kind of experiment: Wound Healing Assay (WHA), breast cancer cell line. In kind it is cell-based. The conditions noted are these: IC10 conc. of compound. How it is done: Wound Healing Assay (WHA) determines the ability of cancer stem cells to heal the wound formed in a confluent monolayer.
Procedure: 0.35×10^6 cells were plated in each well of 6 Tissue Culture well plates. The plate was incubated for 48 hrs at 37° C., 5% CO2. […] IC10 conc. of the respective compound was added into each well. The plates were incubated at 37° C., 5% CO2 and the width of scratch was measured at various time intervals such as 6, 24 and 48 hours. Average of 3 distances were taken for each time point using IS camera Measure. A plot of average width of scratch in micrometer was plotted against the time interval after treatment.

The test system of another test is Human lymphocytes. As to the kind of experiment: Lymphocyte assay (MTT on normal cells). In kind it is cell-based. The conditions noted are these: human peripheral blood lymphocytes, MTT procedure; for IC50: Lymphocyte. A digest of the protocol:
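Lymphocytes from human peripheral blood isolated by density-gradient centrifugation on HiSep LSM 1077, washed in D.P.B.S; only cells with purity and viability above 95% used. Seeded at 0.7 million/ml and assessed by MTT.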

Test [5] relates to PC3. As to the kind of experiment: Soft agar colony-formation assay, prostate cancer. In kind it is cell-based. To be noted: for anticancer activity in comparison with cisplatin, soft agar, prostate cancer cell line: FIG. 52, PC3; for IC50: Homo sapiens, PC-3, 168 h, Soft Agar Assay, 1 week, Alamar Blue. A digest of the protocol:
as §1

Test [6] deals with PC3. In words: In vitro antiproliferative assay (MTT assay), prostate cancer cell line. The class given is cell-based. To be noted: Homo sapiens, PC-3, 48 h, MTT assay, prostate cancer PC3, 48 hrs drug incubation. The essentials:
as §2

The mark [7] stands for this setting: Homo sapiens, MDA-MB-231, read-out: % Viability of spheres (MDAMB231).

One may read the IC50 as the concentration at which inhibition is half-maximal. Read a low IC50 as greater potency. A word on the viability: it is a per cent measure of how many cells are alive, often set against a control. `O=C1C(c2ccc3c(c2)OCO3)=CC(=O)c2c(OCCCCN3CCOCC3)cccc21` [Formula 2, 5-(4-morpholinobutoxy)-2-(benzo[d][1,3]dioxol-6-yl)naphthalene-1,4-dione]: the “anticancer activity in comparison with cisplatin, soft agar, breast cancer cell line” value (shortened to “anticancer activity … breast cancer cell line”) in the test on MDAMB231 [1] was “higher anticancer activity in comparison with cisplatin”. Also, the IC50 with MDAMB231 [1] was found to be 2080 nM; in the test on MDAMB231 [2] it was 566 nM; with Human lymphocytes it was 11500 nM; with PC3 [5], 2650 nM; in the test on PC3 [6] it was 344 nM. The viability at 0.025 µM with MDAMB231 [3] (setting [7]) was 84%. The viability at 0.25 µM in the test with MDAMB231 [3] (setting [7]) was found to be 66%. In the test on MDAMB231 [3] (setting [7]), the viability at 2.5 µM was found to be 46%. Also, in the test with MDAMB231 [3] (setting [7]), the viability at 25 µM was found to be 30%. Moreover, in the test with MDAMB231 [3] (setting [7]), the viability at 250 µM was determined as 14%. The “3D sphere count of MDAMB231” value in the test on MDAMB231 [3] (drug 0.025 uM) is 65(±5); with MDAMB231 [3] (drug 0.25 uM), 51(±3); with MDAMB231 [3] (drug 2.5 uM), 36(±3); with MDAMB231 [3] (drug 25 uM) it was 23(±3); in the test with MDAMB231 [3] (drug 250 uM), 11(±3). For the same molecule, in the test with MDAMB231 [4], the “% inhibition of Wound Healing for Breast Cancer Cell line (MDAMB231) after 48 hrs” value (“% inhibition of Wound Healing” for short) was 53.69%. Moreover, in the test with PC3 [5], the “anticancer activity in comparison with cisplatin, soft agar, prostate cancer cell line” value (from here on “anticancer activity … prostate cancer cell line”) is reported as “higher anticancer activity in comparison with cisplatin”.

For `O=C1C(NC2CCCCC2)=CC(=O)c2c(OCCN3CCOCC3)cccc21` [Formula 52], in the test on MDAMB231 [1], the “anticancer activity … breast cancer cell line” value was “higher anticancer activity in comparison with cisplatin”. Besides, the 50% inhibitory concentration (IC50) in the test on MDAMB231 [1] stood at 3880 nM; in the test with MDAMB231 [2], 3130 nM; in the test on PC3 [5], 3270 nM; in the test on PC3 [6], 4320 nM. Moreover, in the test with MDAMB231 [3] (setting [7]), the viability at 0.0025 µM was 62%. In addition, the viability at 0.025 µM with MDAMB231 [3] (setting [7]) stood at 50%. For the same molecule, the viability at 0.25 µM with MDAMB231 [3] (setting [7]) came to 45%. The viability at 2.5 µM in the test on MDAMB231 [3] (setting [7]) was 38%. The viability at 25 µM with MDAMB231 [3] (setting [7]) was 26%. In addition, the “3D sphere count of MDAMB231” value with MDAMB231 [3] (drug 0.0025 uM) is given as 69(±3); with MDAMB231 [3] (drug 0.025 uM) it was 55(±7); in the test on MDAMB231 [3] (drug 0.25 uM), 43(±3); with MDAMB231 [3] (drug 2.5 uM) it was 34(±4); with MDAMB231 [3] (drug 25 uM), 24(±3). Besides, in the test with MDAMB231 [4], the “% inhibition of Wound Healing” value stood at 37.42%. In the test with Human lymphocytes, the “Activity on Lymphocytes (IC50)” value was “No activity”. The “anticancer activity … prostate cancer cell line” value in the test with PC3 [5] is on record as “higher anticancer activity in comparison with cisplatin”.

On to `COc1ccc(NC2=CC(=O)c3c(OCCN4CCOCC4)cccc3C2=O)cc1OC` [Formula 40, 5-(2-morpholinoethoxy)-2-(3,4-dimethoxyphenylamino) naphthalene-1,4-dione], for which the “anticancer activity … breast cancer cell line” value in the test with MDAMB231 [1] is recorded as “higher anticancer activity in comparison with cisplatin”. The IC50 in the test on MDAMB231 [1] was found to be 353 nM; in the test with MDAMB231 [2], 951 nM; in the test with Human lymphocytes, 13200 nM; in the test with PC3 [5], 422 nM; in the test on PC3 [6], 1680 nM. Besides, the viability at 0.0025 µM in the test on MDAMB231 [3] (setting [7]) was 78%. Moreover, the viability at 0.025 µM in the test on MDAMB231 [3] (setting [7]) stood at 56%. Also, the viability at 0.25 µM in the test with MDAMB231 [3] (setting [7]) amounted to 41 ± 4%. Also, in the test on MDAMB231 [3] (setting [7]), the viability at 2.5 µM was determined as 27%. The viability at 25 µM in the test with MDAMB231 [3] (setting [7]) was found to be 10%. In addition, the “3D sphere count of MDAMB231” value with MDAMB231 [3] (drug 0.0025 uM) is 60(±3); in the test with MDAMB231 [3] (drug 0.025 uM), 43(±3); with MDAMB231 [3] (drug 0.25 uM), 32(±4); in the test on MDAMB231 [3] (drug 2.5 uM), 21(±3); in the test on MDAMB231 [3] (drug 25 uM) it was 8(±2). The “% inhibition of Wound Healing” value in the test with MDAMB231 [4] was 45.84%. In addition, the “anticancer activity … prostate cancer cell line” value in the test with PC3 [5] is listed as “higher anticancer activity in comparison with cisplatin”.
